Results from paper PMC6888615, “A Miniaturized Pump Out Method for Characterizing Molecule Interaction with ABC Transporters” (International Journal of Molecular Sciences, 2019).
Where two headings read alike, the source gives them in different places.

What was measured:
MRPs [1] = system: MRPs; design: method as in PMID 21415249; conditions: read-out: MRPs IC50 published value; cited from earlier work
MRPs [2] = assay: Caco-2 pump out assay, CMFDA excretion; format: cell-based; conditions: for effect on rate out of CMFDA: 50 µM (cyclosporin A 10 µM; doxorubicin 20 µM); for reduction of kout of CMFDA: 50 µM (elacridar 10 µM), p < 0.001
BCRP = conditions: cited from earlier work
P-gp [3] = conditions: cited from earlier work
MRPs [4] = conditions: cited from earlier work
P-gp/BCRP [5] = assay: Caco-2 pump out assay, rhodamine 123 excretion; conditions: for Ratio Kout 96/384 wells, P-gp/BCRP: Kout R123 96-well / 384-well; for decrease of Kout of R123: 50 µM (cyclosporin A, elacridar, TPGS 10 µM; doxorubicin 20 µM);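 as to all read-outs here: Caco-2 cells loaded 120 min with 10 µM rhodamine 123, then dye efflux read by fluorescence at 37 °C every 2 min for 1 h, Kout as slope, compared against compound-free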
[6] = Bidirectional transport (Papp) across Caco-2 monolayers on 24-well inserts, 21 days; conditions: human, Caco-2, pH 7.4
P-gp/BCRP [7] = system: P-gp/BCRP;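 also: Caco-2 cells loaded 120 min with 10 µM rhodamine 123, then dye efflux read by fluorescence at 37 °C every 2 min for 1 h, Kout as slope, compared against compound-free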
[8] = system: efflux pump activity in Caco-2 cells; assay: b→a permeability of doxorubicin across Caco-2 with efflux pump inhibitors; format: in vitro ADME; conditions: doxorubicin 20 µM; cyclosporin A 10 µM, elacridar 0.5 µM
P-gp [9] = conditions: read-out: P-gp IC50 based on the digoxin ER; cited from earlier work

CN(C)C(=O)CCSC(SCCC(=O)O)c1cccc(C=Cc2ccc3ccc(Cl)cc3n2)c1 (centres unmarked) [MK571, 3-[[3-[2-(7-chloroquinolin-2-yl)vinyl]phenyl]-(2-dimethylcarbamoylethylsulfanyl)methylsulfanyl] propionic acid]
IC50 (MRPs [1]): 2.43 µM | effect on rate out of CMFDA (MRPs [2]): decreased strongly | Transporter interaction, MRPs (MRPs [2]; 96 wells): + (Interaction with efflux pumps when Kout ≤ 80% of control) | Transporter interaction, MRPs (MRPs [2]; 384 wells): + (Interaction with efflux pumps when Kout ≤ 80% of control) | IC50 (MRPs [2]; read-out: IC50 towards MRPs activity (CMFDA excretion), non-linear regression of pump out assay data): 3.8 µM | IC50 (BCRP): 50 µM | IC50 (P-gp [3]): 26 µM | IC50 (MRPs [4]): 10 µM | kout Rho 123, mean (P-gp/BCRP [5]): 70.9 ± 10.6 pmol.min^−1.mg^−1 Protein | Transporter interaction, P-gp/BCRP (P-gp/BCRP [5]; 96 wells): + (Interaction with efflux pumps when Kout ≤ 80% of control) | Transporter interaction, P-gp/BCRP (P-gp/BCRP [5]; 384 wells): + (Interaction with efflux pumps when Kout ≤ 80% of control) | Ratio Kout 96/384 wells, P-gp/BCRP (P-gp/BCRP [5]): 1.19 | effect on rate out of cell of R123 (P-gp/BCRP [5]; MK571 50 µM, p < 0.001): slight reduction

COC(=O)c1ccccc1-c1c2ccc(=N)cc-2oc2cc(N)ccc12 [R123, rhodamine 123]
Papp A→B at 1 h [6]: 1.51 ± 0.01 ×10⁻⁶ cm/s | Papp B→A at 1 h [6]: 8.94 ± 0.4 ×10⁻⁶ cm/s | efflux ratio at 1 h, 20 µM [6]: 5.96 ± 0.26

CC(=O)Nc1ccc(O)cc1 [acetanomiphen]
kout Rho 123, mean (P-gp/BCRP [5]): 113.7 ± 12.6 pmol.min^−1.mg^−1 Protein | Ratio Kout 96/384 wells, P-gp/BCRP (P-gp/BCRP [5]): 1.08

O=C(O)Cc1ccccc1Nc1c(Cl)cccc1Cl [diclofenac]
Transporter interaction, MRPs (MRPs [2]; 96 wells): − | Transporter interaction, MRPs (MRPs [2]; 384 wells): −

COc1ccc([C@@H]2Sc3ccccc3N(CCN(C)C)C(=O)[C@@H]2OC(C)=O)cc1 [diltiazem]
Transporter interaction, MRPs (MRPs [2]; 96 wells): − | Transporter interaction, MRPs (MRPs [2]; 384 wells): −

COc1cccc2c1C(=O)c1c(O)c3c(c(O)c1C2=O)C[C@@](O)(C(=O)CO)C[C@@H]3O[C@H]1C[C@H](N)[C@H](O)[C@H](C)O1 [doxorubicin]
effect on rate out of CMFDA (MRPs [2]): decreased strongly | Transporter interaction, MRPs (MRPs [2]; 96 wells): + (Interaction with efflux pumps when Kout ≤ 80% of control) | Transporter interaction, MRPs (MRPs [2]; 384 wells): − | Papp A→B at 1 h [6]: 0.36 ± 0.03 ×10⁻⁶ cm/s | Papp B→A at 1 h [6]: 7.6 ± 0.4 ×10⁻⁶ cm/s | efflux ratio at 1 h, 20 µM [6]: 21.9 ± 1.11 | Transporter interaction, P-gp/BCRP (P-gp/BCRP [7]; 96 wells): + (Interaction with efflux pumps when Kout ≤ 80% of control) | Transporter interaction, P-gp/BCRP (P-gp/BCRP [7]; 384 wells): + (Interaction with efflux pumps when Kout ≤ 80% of control) | decrease of Kout of R123 (P-gp/BCRP [5]; p < 0.001): more than 30% | Ratio Kout 96/384 wells, P-gp/BCRP (P-gp/BCRP [5]): 1.03

COc1cc2c(cc1OC)CN(CCc1ccc(NC(=O)c3cccc4c(=O)c5cccc(OC)c5[nH]c34)cc1)CC2 [elacridar]
reduction of b→a permeability of doxorubicin [8]: 25% | reduction of kout of CMFDA (MRPs [2]): more than 20% | Transporter interaction, MRPs (MRPs [2]; 96 wells): + (Interaction with efflux pumps when Kout ≤ 80% of control) | Transporter interaction, MRPs (MRPs [2]; 384 wells): + (Interaction with efflux pumps when Kout ≤ 80% of control) | Transporter interaction, P-gp/BCRP (P-gp/BCRP [7]; 96 wells): + (Interaction with efflux pumps when Kout ≤ 80% of control) | Transporter interaction, P-gp/BCRP (P-gp/BCRP [7]; 384 wells): + (Interaction with efflux pumps when Kout ≤ 80% of control) | decrease of Kout of R123 (P-gp/BCRP [5]; p < 0.001): more than 30% | Ratio Kout 96/384 wells, P-gp/BCRP (P-gp/BCRP [5]): 0.81

CN(C)C(=O)C(CCN1CCC(O)(c2ccc(Cl)cc2)CC1)(c1ccccc1)c1ccccc1 [loperamide]
reduction of kout of CMFDA (MRPs [2]): more than 20% | Transporter interaction, MRPs (MRPs [2]; 96 wells): + (Interaction with efflux pumps when Kout ≤ 80% of control) | Transporter interaction, MRPs (MRPs [2]; 384 wells): + (Interaction with efflux pumps when Kout ≤ 80% of control) | kout Rho 123, mean (P-gp/BCRP [5]): 42.0 ± 4.9 pmol.min^−1.mg^−1 Protein | decrease of Kout of R123 (P-gp/BCRP [5]; p < 0.001): more than 30% | Transporter interaction, P-gp/BCRP (P-gp/BCRP [5]; 96 wells): + (Interaction with efflux pumps when Kout ≤ 80% of control) | Transporter interaction, P-gp/BCRP (P-gp/BCRP [5]; 384 wells): + (Interaction with efflux pumps when Kout ≤ 80% of control) | Ratio Kout 96/384 wells, P-gp/BCRP (P-gp/BCRP [5]): 1.01

OC[C@@H](O)[C@@H](O)[C@H](O)[C@H](O)CO [mannitol, Mannitol D-[1-14C]]
Papp A→B at 1 h [6]: 0.26 ± 0.03 ×10⁻⁶ cm/s | Papp B→A at 1 h [6]: 0.32 ± 0.03 ×10⁻⁶ cm/s

CCC1(c2ccccc2)C(=O)NC(=O)NC1=O [phenobarbital]
kout Rho 123, mean (P-gp/BCRP [5]): 107.1 ± 10.0 pmol.min^−1.mg^−1 Protein | Ratio Kout 96/384 wells, P-gp/BCRP (P-gp/BCRP [5]): 1.09

C=C[C@H]1C[N@@]2CC[C@H]1C[C@@H]2[C@@H](O)c1ccnc2ccc(OC)cc12 [quinidine]
IC50 (P-gp [9]): 4.9 ± 0.9 µM

CO[C@H]1/C=C/O[C@@]2(C)Oc3c(C)c(O)c4c(O)c(c(/C=N/N5CCN(C)CC5)c(O)c4c3C2=O)NC(=O)/C(C)=C\C=C\[C@H](C)[C@H](O)[C@@H](C)[C@@H](O)[C@@H](C)[C@H](OC(C)=O)[C@@H]1C [rifampicin]
reduction of kout of CMFDA (MRPs [2]): more than 20% | Transporter interaction, P-gp/BCRP (P-gp/BCRP [7]; 96 wells): + (Interaction with efflux pumps when Kout ≤ 80% of control) | Transporter interaction, P-gp/BCRP (P-gp/BCRP [7]; 384 wells): + (Interaction with efflux pumps when Kout ≤ 80% of control) | decrease of Kout of R123 (P-gp/BCRP [5]; p < 0.001): more than 30% | Ratio Kout 96/384 wells, P-gp/BCRP (P-gp/BCRP [5]): 1.12

CC[C@]1(O)C[C@@H]2CN(CCc3c([nH]c4ccccc34)[C@@](C(=O)OC)(c3cc4c(cc3OC)N(C)[C@H]3[C@@](O)(C(=O)OC)[C@H](OC(C)=O)[C@]5(CC)C=CCN6CC[C@]43[C@@H]65)C2)C1 [vinblastine]
reduction of kout of CMFDA (MRPs [2]): more than 20% | decrease of Kout of R123 (P-gp/BCRP [5]; p < 0.001): more than 30% | Transporter interaction, P-gp/BCRP (P-gp/BCRP [5]; 96 wells): + (Interaction with efflux pumps when Kout ≤ 80% of control) | Transporter interaction, P-gp/BCRP (P-gp/BCRP [5]; 384 wells): + (Interaction with efflux pumps when Kout ≤ 80% of control) | Ratio Kout 96/384 wells, P-gp/BCRP (P-gp/BCRP [5]): 0.99

D-α-Tocopherol polyethylene glycol 1000 succinate
kout Rho 123, mean (P-gp/BCRP [5]): 33.7 ± 2.7 pmol.min^−1.mg^−1 Protein | decrease of Kout of R123 (P-gp/BCRP [5]; p < 0.001): more than 30% | Transporter interaction, P-gp/BCRP (P-gp/BCRP [5]; 96 wells): + (Interaction with efflux pumps when Kout ≤ 80% of control) | Transporter interaction, P-gp/BCRP (P-gp/BCRP [5]; 384 wells): + (Interaction with efflux pumps when Kout ≤ 80% of control)

Lucifer yellow
Papp of Lucifer yellow (apical-to-basal) (Caco-2 cells): 0.066 ± 0.016 × 10^−6 cm/s
